The source of these data is ChEMBL document CHEMBL1201862, “PubChem BioAssay data set” (2004).

Structures are written as SMILES.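 A five-concentration, 48-hour dose response in 96-well plates underlies each endpoint, interpolated linearly between surrounding concentrations. GI50 marks 50% less growth.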 The source made the active and inactive calls. Rule as the data show it: active = GI50 up to about 1.1 µM and inactive = higher.

Among the test systems are NCI-H460; OVCAR-8; NCI-H226; IGROV-1; MDA-N; SNB-19; OVCAR-5; DU-145; SK-MEL-2; SK-MEL-28; ACHN; Malme-3M; SF-539; LOX IMVI; SN12C; CAKI-1; U-251; SF-295.
Common to all, as to assay: NCI tumour cell line growth inhibition, 48 h

On to `CC(=N/NC(N)=S)/C(C)=N/NC(N)=S`, for which the GI50 with NCI-H460, in the test on OVCAR-8, in the test with NCI-H226, in the test on IGROV-1, in the test on MDA-N and in the test on SNB-19 was > 100 µM (inactive) each time. The GI50 in the test on OVCAR-5, in the test on DU-145, in the test on SK-MEL-2, with SK-MEL-28, in the test on ACHN and with Malme-3M was > 100 µM (inactive) each time. Moreover, the GI50 with SF-539, in the test on LOX IMVI and in the test on SN12C was > 100 µM (inactive) in each case.
On to `COc1cc(S(=O)(=O)Nc2ccc(-c3csc(N4C(=O)C(C)SC4c4ccccc4)n3)cc2)ccc1Cl` (stereo unspecified), for which the GI50 was > 100 µM (inactive) in the test on OVCAR-8; 0.0853 µM (active) in the test with NCI-H226; 17.5 µM (inactive) with IGROV-1; 19.5 µM (inactive) in the test on MDA-N; > 100 µM (inactive) in the test on CAKI-1; 35.7 µM (inactive) with SNB-19. The GI50 in the test with OVCAR-5 is > 100 µM (inactive); with DU-145 it was 40.2 µM (inactive); in the test on SK-MEL-2, 0.979 µM (active); in the test on SK-MEL-28, 24.7 µM (inactive); in the test on ACHN, > 100 µM (inactive); with Malme-3M, 80.4 µM (inactive). Moreover, the GI50 in the test on SF-539 is 13.4 µM (inactive); in the test with LOX IMVI it was 10.1 µM (inactive); with SN12C, 94.2 µM (inactive).
For `COc1ccc2nc3cc([N+](=O)[O-])ccc3c(Nc3ccc(S(=O)(=O)NC(C)=O)cc3)c2c1`, the GI50 in the test with NCI-H460 is 40.6 µM (inactive); in the test with NCI-H226, > 100 µM (inactive); in the test with MDA-N, > 100 µM (inactive); in the test with CAKI-1, > 100 µM (inactive); in the test with SNB-19, > 100 µM (inactive); with OVCAR-5, > 100 µM (inactive). Also, the GI50 in the test with U-251 is 44.8 µM (inactive); with DU-145 it was 90.6 µM (inactive); in the test with SK-MEL-2, > 100 µM (inactive); with SK-MEL-28, > 100 µM (inactive); with ACHN, 88.1 µM (inactive); in the test on Malme-3M, > 100 µM (inactive). Besides, the GI50 is > 100 µM (inactive) with SF-539, > 100 µM (inactive) in the test on SF-295, 93.3 µM (inactive) with LOX IMVI and > 100 µM (inactive) in the test with SN12C.
Take `COc1ccc(C(=O)N(C(=O)N2CCN(c3ccccc3)CC2)S(=O)(=O)c2ccccc2)cc1`: the GI50 in the test with NCI-H460 was 32.4 µM (inactive); with OVCAR-8, 19.8 µM (inactive); in the test with NCI-H226, 22.2 µM (inactive); in the test on MDA-N it was 23.9 µM (inactive); with CAKI-1, 20.3 µM (inactive); with SNB-19 it was 24.7 µM (inactive). Further, the GI50 with OVCAR-5 was 24.7 µM (inactive); in the test on U-251 it was 18.1 µM (inactive); in the test on DU-145, 27.2 µM (inactive); with SK-MEL-2, 18.5 µM (inactive); in the test with SK-MEL-28, 30.8 µM (inactive); in the test on ACHN, 18.8 µM (inactive). The GI50 in the test on Malme-3M is 28.2 µM (inactive); in the test on SF-539, 17.8 µM (inactive); with SF-295 it was 31.9 µM (inactive); in the test on LOX IMVI it was 13.7 µM (inactive); in the test on SN12C it was 24.3 µM (inactive).
With `C[N+]1=C2[B-](C(C)(C)C)=[N+](C(C)(C)C)[B-]2(C(C)(C)C)[N+](C)=C2[B-](C(C)(C)C)=[N+](C(C)(C)C)[B-]21C(C)(C)C` (stereo unspecified), the GI50 in the test with NCI-H460, with OVCAR-8, in the test with NCI-H226, in the test with IGROV-1, in the test with MDA-N and in the test with CAKI-1 was > 100 µM (inactive) in each case. Also, the GI50 with SNB-19, in the test on OVCAR-5, with U-251, in the test with DU-145, with SK-MEL-2 and in the test with SK-MEL-28 was > 100 µM (inactive) throughout. Further, the GI50 in the test on ACHN was > 100 µM (inactive); in the test with Malme-3M it was > 100 µM (inactive); in the test with SF-295, 61.9 µM (inactive); in the test on LOX IMVI it was > 100 µM (inactive); with SN12C it was > 100 µM (inactive).
For the compound `Clc1ccc(C2=NCON=C2c2ccc(Cl)cc2)cc1`, the GI50 in the test with NCI-H460 was 19.7 µM (inactive); with OVCAR-8, 25.6 µM (inactive); in the test on NCI-H226 it was 14.5 µM (inactive); in the test with MDA-N, 18.8 µM (inactive); in the test with CAKI-1, 21.6 µM (inactive); with SNB-19 it was 28 µM (inactive). Besides, the GI50 is 20.1 µM (inactive) in the test on OVCAR-5; 18.3 µM (inactive) in the test with U-251; 30.5 µM (inactive) in the test with DU-145; 19.9 µM (inactive) in the test with SK-MEL-2; 19 µM (inactive) in the test on ACHN; 14.5 µM (inactive) in the test on Malme-3M. Also, the GI50 was 15.3 µM (inactive) in the test on SF-539, 16.6 µM (inactive) in the test on SF-295, 15.1 µM (inactive) in the test on LOX IMVI and 19 µM (inactive) in the test with SN12C.
With `Cc1nn(C(=O)c2ccc(Cl)cc2)c2c1C(c1ccccc1[N+](=O)[O-])SC(=N)N2` (stereo unspecified), the GI50 with NCI-H460, in the test with OVCAR-8, in the test on NCI-H226, in the test with IGROV-1, with MDA-N and in the test on CAKI-1 was > 10 µM (inactive) each time. Besides, the GI50 in the test with SNB-19, in the test on OVCAR-5, in the test with U-251, in the test with DU-145, in the test on SK-MEL-2 and in the test with ACHN was > 10 µM (inactive) each time. Besides, the GI50 with Malme-3M, with SF-539, in the test with SF-295, in the test on LOX IMVI and with SN12C was > 10 µM (inactive) each time.
Consider `CCCCCCCCC/C=C1\CC(CO)(COC(=O)C2CCCCC2)OC1=O` (stereo unspecified), for which the GI50 with NCI-H460 is 14.5 µM (inactive); in the test on OVCAR-8, 15.8 µM (inactive); in the test on NCI-H226, 23.3 µM (inactive); with IGROV-1, 20.2 µM (inactive); in the test with MDA-N, 16.7 µM (inactive); in the test with CAKI-1, 22.9 µM (inactive). For the same compound, the GI50 with SNB-19 was 21.8 µM (inactive); in the test with OVCAR-5, 17.8 µM (inactive); in the test with U-251, 19.7 µM (inactive); in the test on DU-145 it was 7.6 µM (inactive); in the test on SK-MEL-2, 18.2 µM (inactive); in the test on SK-MEL-28, 15.6 µM (inactive). In addition, the GI50 in the test on ACHN was 20 µM (inactive); in the test on Malme-3M it was 15.2 µM (inactive); with SF-295, 15.9 µM (inactive); in the test with LOX IMVI, 11.8 µM (inactive); with SN12C, 16.9 µM (inactive).
With `COc1c(O)cc2oc(-c3ccc(O)cc3)cc(=O)c2c1O` [HISPIDULIN], the GI50 in the test on NCI-H460 is 30.8 µM (inactive); in the test with NCI-H226, 77.6 µM (inactive); in the test with IGROV-1 it was 22.7 µM (inactive); in the test on MDA-N, 37.2 µM (inactive); with SNB-19, 56.1 µM (inactive); with OVCAR-5, 75.2 µM (inactive). The GI50 was 42.7 µM (inactive) in the test with U-251; 30.5 µM (inactive) with DU-145; 27.2 µM (inactive) with SK-MEL-2; 45.7 µM (inactive) in the test on SK-MEL-28; 26.8 µM (inactive) in the test with ACHN; 74.8 µM (inactive) with Malme-3M. For the same compound, the GI50 with SF-539 is 27 µM (inactive); in the test on SF-295, 44.1 µM (inactive); in the test on LOX IMVI, 39.2 µM (inactive); in the test on SN12C, 39.4 µM (inactive).
